Legend:
peppers (Capsicum) = assay: Foliar application to pepper, yield; type: in vivo, pepper (Capsicum)
Experimental: Foliar treatments of Bt.4Q7 Flg22 and Ec.Flg22 bioactive priming polypeptides were applied using small scale plots designed to simulate commercial growing conditions for peppers (Capsicum). Two varieties of pepper: Red Knight (RK) and Hungarian Hot Wax (HHW) were grown from 6-week old transplants in raised beds covered with black plastic mulch that had good water-holding characteristics and a pH of 5.8-6.6. Plants were grown using drip irrigation and fertilizer applied following grower guidelines throughout the growing season to ensure optimum plant growth and yields. Small raised bed plots were designed to simulate the planting densities used by commercial growers that generally plant approximately 10,000-14,000 plants per acre in double rows 14-18 inches (35.6 to 46 cm) apart on plastic mulched beds with 16-24 inches (40.6 to 61 cm) between plants in the row and with the beds spaced 5.0-6.5 feet ([…]) apart from their centers. A single row of peppers also can be planted on each bed (5,000-6,500 plants per acre or 12,355-16,062 plants per hectare).
Effects of the foliar applications on pepper yield were determined for two separate harvests using a once over harvest approach and normalized to the yield of the control plants. The average percentage change in yield for each treatment over the yield for the control plants is reported as pounds/acre (lbs/Ac) in Table 29.
Foliar treatment of Gm.RHPP (SEQ ID NO: 600) was applied as an exogenous spray at the first-bloom stage to increase yield in two pepper varieties. Foliar treatment of Gm.RHPP was applied using small scale plots designed to simulate commercial growing conditions for peppers (Capsicum) as described in Example 13. Foliar applications with the Gm.RHPP bioactive priming polypeptide were applied at the first flower stage, on two varieties of pepper, Red Knight (RK) and Hungarian Hot Wax (HHW). […] Effects of the foliar applications on pepper yield were determined for two separate harvests using a once over harvest approach and normalized to the yield of the control plants. The average percentage change in yield over the yield for the control plants is reported in Table 42, as the percent change per total weight (lbs/Ac) of peppers harvested. Average percent change in yield is reported for the 2 replicate harvests (trials) for the RK and HHW pepper varieties and then as a combined average for both varieties.
Small-scale plots were designed to simulate commercial growing conditions for jalapeno peppers. Peppers were grown for 12-weeks in a controlled growth room and then transplanted outside in 2 raised beds covered with black plastic mulch that had good water-holding characteristics and in soil having a pH of 5.8-6.6. Jalapeno pepper plants were spaced 14-16 inches (38 cm) apart with 16-24 inches (50 cm) between plants containing approximately 25 plants per row bed. Plants were grown using drip irrigation and fertilizer applied following grower guidelines throughout the growing season to provide optimum conditions for plant growth. The raised bed plots were designed to simulate the planting densities used by commercial growers that generally plant approximately plants per acre (5,000-6,500 plants per acre or 12,355-16,062 plants per hectare) in double rows 35.6-45.7 cm apart with the beds spaced 5.0-6.5 feet (1.52-1.98 meters) apart from their centers (Orzolek et al., “Agricultural Alternatives: Pepper Production.” University Park: Penn State Extension, 2010).

soybean [1] = assay: Foliar application to soybean, field yield trials; type: in vivo; conditions: foliar at R2; AG2836; 7 US Midwest locations; use rate 0.33 Fl. oz/Ac
squash = assay: Foliar application to squash, yield; type: in vivo; conditions: Crookneck squash
Text: Formulation 2 (F2) consists of the D RI Bt.4Q7 Flg22 applied with 0.01% (wv) non-ionic surfactant. […] Yield comparisons were made between the plants treated with the foliar Bt.4Q7Flg22 F1 and F2 spray applications compared to the control (water) or non-treated squash plants. Squash plants were cultivated in sandy loam soil as follows. 2.5 cm holes were cut in 2.5 ft. (0.76 m) wide plastic covered mounds, two rows per mound, holes spaced 1.5 ft (0.46 m) apart within each row. Rows were staggered within the mound. Mounds were spaced 4 ft (1.2 m) apart. Three squash seeds were planted per hole and thinned to a single plant per hole 14 days after planting. Drip irrigation tubing was laid in the center of each mound, and plants were watered as necessary.
Squash plants were grown from seed in raised beds until bloom, and foliar treated in the same Florida (FL) location using two replicated trials or two separate harvests. Yield for the foliar Bt.4Q7Flg22 applied F1 and F2 treated plants is reported as the number of squash per plant, the weight (grams) per squash and the total squash yield (lbs/Ac) and represented as a percentage change as compared to non-treated control plants (Table 31).
Yield comparisons were made between the plants treated with the polypeptides compared to surfactant only control plants, with three replicates per treatment. […] Replicates with average yield per plant 50% above or 50% below the median yield for the trial were excluded as outliers.
Squash plants were cultivated in sandy loam soil as follows. 2.5 cm holes were cut in 0.76 meters wide plastic covered mounds, two rows per mound, holes spaced 0.46 meters apart within each row. Rows were staggered within the mound. Mounds were spaced 1.2 meters apart. Three squash seeds were planted per hole and thinned to a single plant per hole 14 days after planting. Drip irrigation tubing was laid in the center of each mound, and plants were watered as necessary.

corn = type: in vivo; conditions: 8.0 Fl. oz/Ac
soybean [2] = assay: Foliar application to soybean, field yield trials; type: in vivo
[3] = Jalapeno pepper, foliar at early bloom, 100 μM, 3.2 fl oz/Ac
[4] = foliar 1 Fl. oz/Ac at first flower, vs water control, 2 harvests
[5] = Bt.4Q7Flg22 2.0 Fl. oz/Ac, Gm.RHPP 3.2 Fl. oz/Ac
[6] = foliar at V5, 100 μM, 6 US Midwest locations
[7] = foliar at R2, 7 US Midwest locations, use rate 0.33 Fl. oz/Ac
[8] = foliar at R2, average of AG3536 and AG3832, use rate RHPP 4.0, N-RAGE MAX 128 Fl. oz/Ac

Sequence: GGIRAAPTGNER (Glycine max) [RHPP, Root Hair Promoting Peptide from Glycine max]
- increase in yield vs control, combined average of both varieties (peppers (Capsicum); 1 Fl. oz/Ac): 67%
- increase in yield vs control (peppers (Capsicum); 1 Fl. oz/Ac, HHW peppers): 46%
- increase in yield vs control (peppers (Capsicum); 1 Fl. oz/Ac, RK peppers): 87%
- Average Fruit Weight (grams) per Plant (peppers (Capsicum); [3]): 156.6 grams
- Percentage Change in Fruit Weight Compared to Surfactant Control (peppers (Capsicum); [3]): +27%
- increase in average fruit weight per plant vs surfactant only (peppers (Capsicum); Jalapeno, pre-bloom, Bt.4Q7Flg22 2 Fl. oz/Ac, Gm.RHPP 3.2 Fl. oz/Ac): 27%
- Avg. Percent Change Yield Total Weight (lbs/Ac) Hungarian Hot Wax (peppers (Capsicum); [4]): +46%
- Avg. Percent Change Yield Total Weight (lbs/Ac) Red Knight (peppers (Capsicum); [4]): +87%
- Combined Avg. Percent Change Yield Total Number (lbs/Ac) RK and HHW (peppers (Capsicum); foliar 1 Fl. oz/Ac at first flower, vs water control, both varieties): +67%
- Average Total Yield Bu/Ac Variety 1 (soybean [1]): 59.15 Bu/Ac
- Average squash fruit weight (grams) per plant (squash; foliar at first bloom, Bt.4Q7Flg22 16.7 μM 2 fl oz/Ac, Gm.RHPP 100 μM 3.2 fl oz/Ac, two harvests): 748.4 grams
- Percentage Change in Fruit Weight Compared to Surfactant only control (squash; foliar at first bloom, Bt.4Q7Flg22 2 fl oz/Ac, Gm.RHPP 3.2 fl oz/Ac): +4.4%
- change in fruit weight vs surfactant only control (squash; [5]): 4.4%
- increase in weight of harvested squash fruit per plant (squash; [5]): 31.7 grams
- average yield (corn; V5 corn, 6 locations combined): more than 209 Bu/Ac
- yield increase vs surfactant control (corn; V5 corn, 6 locations combined): 3.52 Bu/Ac
- Average Change in Bu/Ac compared to surfactant only control (corn; [6]): (+3.52; Bu/Ac
- Average Yield Bu/Ac (corn; [6]): 209.67 Bu/Ac
- win rate (corn; foliar at V5, 100 μM, vs surfactant only control): 64%
- yield advantage on top of foliar fertilizer (soybean [2]; 8 fl oz/Ac with foliar fertilizer, 11 sites): 1 Bu/AC
- yield increase over non-treated control (soybean [2]; R2 foliar, 2 varieties, 7 locations, RHPP alone 4.0 Fl. oz/Ac): 1.26 Bu/Ac
- yield advantage (soybean [2]; R2 foliar, 4 Fl. oz/Ac, 11 sites): 0.31 Bu/Ac
- average yield change vs non-treated control (soybean [2]; R2 foliar, 11 locations, Flg22 polypeptides 0.33 Fl. oz/Ac, RHPP 4 Fl. oz/Ac): 1.2 Bu/Ac
- yield increase compared to fertilizer alone (soybean [2]; RHPP 1 Fl. oz/Ac (300 nM) with N-RAGE MAX, R2, variety AG3536, 5 locations): 1.4 Bu/Ac
- Average Bu/Ac Increase compared to Control Variety 1 and 2 (soybean [2]; [7]): +0.35 Bu/Ac
- Average Total Yield Bu/Ac Variety 1 and 2 (soybean [2]; [7]): 60.92 Bu/Ac
- Average Total Yield Bu/Ac Variety 2 (soybean [2]; foliar at R2, AG3536, 7 US Midwest locations, use rate 0.33 Fl. oz/Ac): 62.44 Bu/Ac
- Average Bu/Ac Change compared to Control Variety 1 and 2 (soybean [2]; [8]): +0.9 Bu/Ac
- Average Total Yield Bu/Ac Variety 1 and 2 (soybean [2]; [8]): 63.23 Bu/Ac
- Average Total Yield Bu/Ac Variety 1 (soybean [2]; foliar at R2, variety 1 (AG3536), 5 US Midwest locations, use rate RHPP 4.0, N-RAGE MAX 128 Fl. oz/Ac): 65.42 Bu/Ac
- Average Total Yield Bu/Ac Variety 2 (soybean [2]; foliar at R2, variety 2 (AG3832), 5 US Midwest locations, use rate RHPP 4.0, N-RAGE MAX 128 Fl. oz/Ac): 61.04 Bu/Ac

— patent US12268727B2, “Bioactive polypeptides for improvements in plant protection, growth and productivity” (priority 2017, dated 2025)
